Laboratory results: patent US20260070929A1, “METHODS AND COMPOSITIONS FOR MODULATING KRAS(G12D)” (Ranok Therapeutics (Hangzhou) Co. LTD., priority 2022, published 2026)

Experiments:
KRAS(G12D)/SOS1 = target: T1, KRAS(G12D)/SOS1 (Homo sapiens, UniProt P01116, G12D); assay: KRAS(G12D)/SOS1 homogeneous time-resolved fluorescence (HTRF) assay; format: binding; conditions: absence of GTP; 4° C., 3 hr
T1 construct: purchased Cisbio 63ADK000CB17PEH
Experimental: Binding of test compounds to KRAS(G12D) target protein, which in turn blocks KRAS(G12D) interaction with the SOS1 protein, was measured in the absences of GTP by homogeneous time-resolved fluorescence using the KRAS-G12D/SOS1 Binding Assay Kit (Cisbio, 63ADK000CB17PEH), following the manufacturer's instructions, except as noted. 3-fold serial dilutions of each test compound were prepared ranging from 20 µM to 1.02 nM. The test compound was mixed and incubated with reaction components, incubated in a sealed plate at 4° C. for 3 hr and fluorescence was measured using a PerkinElmer Envision plate reader. The KRAS(G12D)-SOS1 IC50 values (the concentration of 50% of the maximal inhibition) were calculated using GraphPad Prism 7 software.

[1] = tested on: AGS gastric carcinoma cells [heterozygous G12D]; assay: Cancer cell line proliferation (CellTiter-Glo), AGS; format: cell-based; conditions: Homo sapiens, 72 hr treatment, read-out: AGS CTG (EC50)
Experimental: (§1) The following cancer cell lines were employed: AGS gastric carcinoma [heterozygous G12D](ATCC, CRL-1739); A-427 lung carcinoma [heterozygous G12D](ATCC, HTB-53); ASPC1 pancreatic adenocarcinoma [homozygous G12D](ATCC, CRL-1682) and SW1990 pancreatic adenocarcinoma [homozygous G12D](ATCC CRL-2172). Cell lines were cultured essentially according to ATCC recommendations.
(§2) AGS, A-427, ASPC1, SW1990, and GP2D cells were plated in 96-well tissue culture plates at 4,000 cells/well and incubated at 37° C./5% CO2 for 72 hr in 100 μl of media. 3-fold serial dilutions of each test compound were prepared ranging from 20 μM to 1.02 nM. Each cell line was then treated with test compounds at various concentrations with a final concentration of 0.5% DMSO/well, and then incubated at 37° C./5% CO2 for 72 hr. 100 µl of CellTiter-Glo® Reagent (Promega Corporation, Madison, WI) was added to each well and processed according manufacturer's protocol. Results were analyzed and EC50 values were calculated in GraphPad 7 software.

[2] = tested on: A-427 lung carcinoma cells [heterozygous G12D]; assay: Cancer cell line proliferation (CellTiter-Glo), A-427; format: cell-based; conditions: Homo sapiens, A-427 cells, 72 hr treatment, read-out: A427 CTG (EC50)
Experimental: as §1, §2

T1 sequence (P01116 1-188 isoform P01116-2 G12D): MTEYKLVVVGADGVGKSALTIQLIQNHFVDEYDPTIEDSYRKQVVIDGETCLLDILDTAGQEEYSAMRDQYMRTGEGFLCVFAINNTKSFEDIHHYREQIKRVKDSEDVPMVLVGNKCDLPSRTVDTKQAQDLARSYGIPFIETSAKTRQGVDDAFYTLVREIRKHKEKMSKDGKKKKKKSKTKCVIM

Compound | IC50 (KRAS(G12D)/SOS1) [nM] | EC50 [1] [nM] | EC50 [2] [nM]
C#Cc1cccc2cccc(-c3ncc4c(N5CC6CCC(C5)N6)nc(OCC5(CN6CCN(C(=O)C7CCN(Cc8ccc9c(c8)CN(C(=O)c8cc(C(C)C)c(O)cc8O)C9)CC7)CC6)CC5)nc4c3F)c12 [Compound 46] | < 100 |  | 
CCNC(=O)c1nnc(-c2cc(C(C)C)c(O)cc2O)n1-c1ccc(CN2CCC(C(=O)N(C)[C@H]3CN4CCC[C@@]4(COc4nc(N5CC6CCC(C5)N6)c5cnc(-c6cc(O)cc7ccccc67)c(F)c5n4)C3)CC2)cc1 [Compound 47] | < 100 | 100 to 1000 | 
CCNC(=O)c1nnc(-c2cc(C(C)C)c(O)cc2O)n1-c1ccc(CN2CCC(C(=O)N(C)[C@H]3CN4CCC[C@]4(COc4nc(N5CC6CCC(C5)N6)c5cnc(-c6cc(O)cc7ccccc67)c(F)c5n4)C3)CC2)cc1 [Compound 48] |  | 100 to 1000 | 
Cc1cccc2cccc(-c3ncc4c(N5CC6CCC(C5)N6)nc(OC[C@@H]5CC[C@H](CN6CCN(Cc7ccc8c(c7)CN(C(=O)c7cc(C(C)C)c(O)cc7O)C8)CC6)N5C)nc4c3F)c12 [Compound 71] | 100 to 1000 | 100 to 1000 | 100 to 1000
CCNC(=O)c1nnc(-c2cc(C(C)C)c(O)cc2O)n1-c1ccc(CN2CCN(C[C@H]3CC[C@@H](COc4nc(N5CC6CCC(C5)N6)c5cnc(-c6cccc7cccc(C)c67)c(F)c5n4)N3C)CC2)cc1 [Compound 72] | 100 to 1000 | < 100 | < 100
CCc1cc(-c2nnc(C(=O)NCC(F)(F)F)n2-c2ccc(CN3CCN(C[C@H]4CC[C@@H](COc5nc(N6CC7CCC(C6)N7)c6cnc(-c7cc(C)cc8ccccc78)c(F)c6n5)N4C)CC3)cc2)c(O)cc1O [Compound 73] | < 100 | 100 to 1000 | 100 to 1000
CC(C)c1cc(C(=O)N2Cc3ccc(CN4CCN([C@H]5C[C@@H](COc6nc(N7CC8CNC(C8)C7)c7cnc(-c8cc(O)cc9ccccc89)c(F)c7n6)N(C)C5)CC4)cc3C2)c(O)cc1O (stereo partly shown) [Compound 74] | > 1000 | 100 to 1000 | 100 to 1000
C#Cc1cccc2cccc(-c3ncc4c(N5CC6CCC(C5)N6)nc(OCCN5CCN(CCN(CC)C(=O)c6cc(C(C)C)c(O)cc6O)CC5)nc4c3F)c12 [Compound 75] | 100 to 1000 | > 1000 | > 1000
CC(C)c1cc(C(=O)N2Cc3ccc(CN4CCN(C[C@H]5CC[C@@H](COc6nc(N7CC8CCC(C7)N8)c7cnc(-c8cccc9cccc(F)c89)c(F)c7n6)N5C)CC4)cc3C2)c(O)cc1O [Compound 76] | 100 to 1000 | 100 to 1000 | 100 to 1000
CCNC(=O)c1nnc(-c2cc(C(C)C)c(O)cc2O)n1-c1ccc(CN2CCN([C@H]3C[C@@H](COc4nc(N5CC6CCC(C5)N6)c5cnc(-c6cccc7cccc(F)c67)c(F)c5n4)N(C)C3)CC2)cc1 [Compound 77] | 100 to 1000 | < 100 | 100 to 1000
Cc1c(F)cccc1-c1ncc2c(N3CC4CCC(C3)N4)nc(OC[C@@H]3C[C@H](N4CCN(Cc5ccc(-n6c(C(=O)NC(C)C(F)(F)F)nnc6-c6cc(C(C)C)c(O)cc6O)cc5)CC4)CN3C)nc2c1F (stereo partly shown) [Compound 78] | > 1000 | 100 to 1000 | 100 to 1000
Cc1c(F)cccc1-c1ncc2c(N3CC4CCC(C3)N4)nc(OC[C@@H]3C[C@H](N4CCN(C(=O)C5CCN(Cc6ccc7c(c6)CN(C(=O)c6cc(C(C)C)c(O)cc6O)C7)CC5)CC4)CN3C)nc2c1F [Compound 84] |  | 100 to 1000 | 100 to 1000
CC(C)c1cc(C(=O)N2Cc3ccc(CN4CCN(C[C@H]5C[C@@H](COc6nc(N7CC8CCC(C7)N8)c7cnc(-c8cc(O)cc9ccccc89)c(F)c7n6)N(C)C5)CC4)cc3C2)c(O)cc1O [Compound 90] |  | 100 to 1000 | 100 to 1000
CC(C)c1cc(-c2nnc(C(=O)NC(C)C(F)(F)F)n2-c2ccc(CN3CCN([C@H]4C[C@@H](COc5nc(N6CC7CCC(C6)N7)c6cnc(-c7ccccc7C(F)(F)F)c(F)c6n5)N(C)C4)CC3)cc2)c(O)cc1O (stereo partly shown) [Compound 110] |  | 100 to 1000 | 100 to 1000
CCc1cc(-c2nnc(C(=O)NCC(F)(F)F)n2-c2ccc(CN3CCN([C@H]4C[C@@H](COc5nc(N6CC7CCC(C6)N7)c6cnc(-c7ccccc7C(F)(F)F)c(F)c6n5)N(C)C4)CC3)cc2)c(O)cc1O [Compound 111] |  | 100 to 1000 | 100 to 1000
CC(C)c1cc(C(=O)N2Cc3ccc(CN4CCC(C(=O)N5CCN(C[C@H]6C[C@@H](COc7nc(N8CC9CCC(C8)N9)c8cnc(-c9cc(O)cc%10ccccc9%10)c(F)c8n7)N(C)C6)CC5)CC4)cc3C2)c(O)cc1O [Compound 112] |  | > 1000 | > 1000

Compound | IC50 (KRAS(G12D)/SOS1) [nM] | EC50 [1] [nM] | EC50 [2] [nM]
C#Cc1cccc2cc(O)cc(-c3ncc4c(N5CC6CCC(C5)N6)nc(OC[C@@H]5C[C@H](CN6CCN(Cc7ccc8c(c7)CN(C(=O)c7cc(C(C)C)c(O)cc7O)C8)CC6)CN5C)nc4c3F)c12 [Compound 113] |  | 100 to 1000 | 100 to 1000
C#Cc1cccc2cc(O)cc(-c3ncc4c(N5CC6CCC(C5)N6)nc(OC[C@@H]5C[C@H](CN6CCN(Cc7ccc(-n8c(C(=O)NCC)nnc8-c8cc(C(C)C)c(O)cc8O)cc7)CC6)CN5C)nc4c3F)c12 [Compound 114] |  | 100 to 1000 | 100 to 1000
C#Cc1cccc2cc(O)cc(-c3ncc4c(N5CC6CCC(C5)N6)nc(OC[C@@H]5C[C@H](CN6CCN(Cc7ccc(-n8c(C(=O)NC(C)C(F)(F)F)nnc8-c8cc(C(C)C)c(O)cc8O)cc7)CC6)CN5C)nc4c3F)c12 (stereo partly shown) [Compound 115] |  | 100 to 1000 | 100 to 1000
C#Cc1cccc2cc(O)cc(-c3ncc4c(N5CC6CCC(C5)N6)nc(OC[C@@H]5C[C@H](CN6CCN(Cc7ccc(-n8c(C(=O)NCC(F)(F)F)nnc8-c8cc(CC)c(O)cc8O)cc7)CC6)CN5C)nc4c3F)c12 [Compound 116] |  | 100 to 1000 | > 1000
C#Cc1c(F)ccc2cc(O)cc(-c3ncc4c(N5CC6CCC(C5)N6)nc(OCC5(CN6CCC(N7CCN(Cc8ccc9c(c8)CN(C(=O)c8cc(C(C)C)c(OC)cc8OC)C9)CC7)CC6)CC5)nc4c3F)c12 [Compound 196] |  | < 100 | 
C#Cc1c(F)ccc2cc(O)cc(-c3ncc4c(N5CC6CCC(C5)N6)nc(OC[C@H]5CCCN5Cc5ccc(-n6c(C(=O)NC(C)C(F)(F)F)nnc6-c6cc(C(C)C)c(O)cc6O)cc5)nc4c3F)c12 (stereo partly shown) [Compound 206] |  | 100 to 1000 | 
C#Cc1c(F)ccc2cc(O)cc(-c3ncc4c(N5CC6CNC(C6)C5)nc(OCC5(CN6CCC(N7CCN(Cc8ccc9c(c8)CN(C(=O)c8cc(C(C)C)c(O)cc8O)C9)CC7)CC6)CC5)nc4c3F)c12 (stereo not shown) [Compound 207] |  | 100 to 1000 | 
C#Cc1c(F)ccc2cc(O)cc(-c3ncc4c(N5CC6CCC(C5)N6CC#N)nc(OCC5(CN6CCC(N7CCN(Cc8ccc9c(c8)CN(C(=O)c8cc(C(C)C)c(O)cc8O)C9)CC7)CC6)CC5)nc4c3F)c12 [Compound 208] |  | < 100 | 
C#Cc1c(F)ccc2cc(O)cc(-c3ncc4c(N5CC6CCC(C5)N6)nc(OCC5(CN6CCC(N7CCN(Cc8cc9c(cc8F)CN(C(=O)c8cc(C(C)C)c(O)cc8O)C9)CC7)CC6)CC5)nc4c3F)c12 [Compound 209] |  | < 100 | 
C#Cc1c(F)ccc2cc(O)cc(-c3nc(OC)c4c(N5CC6CCC(C5)N6)nc(OC5CN(CC6(F)CN(Cc7ccc8c(c7)CN(C(=O)c7cc(C(C)C)c(O)cc7O)C8)C6)C5)nc4c3F)c12 [Compound 210] |  | 100 to 1000 | 
C#Cc1c(F)ccc2cc(O)cc(-c3ncc4c(N5CC6CCC(C5)N6)nc(OCC5(CN6CCN(CC#Cc7cn(Cc8ncc(C)c(OC)c8C)c8nc(N)nc(Cl)c78)CC6)CC5)nc4c3F)c12 [Compound 211] |  | < 100 | 
C#Cc1c(F)ccc2cc(O)cc(-c3ncc4c(N5CC6CCC(C5)N6)nc(OCC5(CN6CC(C7CN(Cc8ccc9c(c8)CN(C(=O)c8cc(C(C)C)c(O)cc8O)C9)C7)C6)CC5)nc4c3F)c12 [Compound 213] |  | < 100 | 
C#Cc1cccc2cc(O)cc(-c3ncc4c(N5CC6CCC(C5)N6)nc(OCC5(CN6CCC(N7CCN(Cc8ccc9c(c8)CN(C(=O)c8cc(C(C)C)c(O)cc8O)C9)CC7)CC6)CC5)nc4c3F)c12 [Compound 214] |  | < 100 | 
C#Cc1c(F)ccc2cc(O)cc(-c3ncc4c(N5CC6CCC(C5)N6)nc(OCC5(CN6CC(C7CCN(Cc8ccc9c(c8)CN(C(=O)c8cc(C(C)C)c(O)cc8O)C9)CC7)C6)CC5)nc4c3F)c12 [Compound 215] |  | < 100 | 
C#Cc1c(F)ccc2cc(O)cc(-c3ncc4c(N5CC6CCC(C5)N6)nc(OCC5(CN6CCC(N7CCC(Oc8ccc9c(n8)CN(C(=O)c8cc(C(C)C)c(O)cc8O)C9)CC7)CC6)CC5)nc4c3F)c12 [Compound 216] |  | < 100 | 
C#Cc1c(F)ccc2cc(O)cc(-c3ncc4c(N5CC6CCC(C5)N6)nc(OCC5(CN6CC(CN(C)CCOc7ccc8c(c7)CN(C(=O)c7cc(C(C)C)c(O)cc7O)C8)C6)CC5)nc4c3F)c12 [Compound 218] |  | 100 to 1000 | 
